According to the supplement of paper PMC8837787:

System: Saccharomyces cerevisiae ABC16-Green Monster
Test: growth inhibition at single dose (up to 150 µM), below the 70% cut-off for dose-response; higher = more potent
Details: 18 h; 30 °C; YPD
Method in brief: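 Data are given as percent growth inhibition. Log-phase drug-sensitive S. cerevisiae ABC16-Green Monster cells (OD600 0.1–0.2, 200 µl per well in 96-well plates) were treated in biological duplicates with each library compound at a single 150 µM dose, with untreated cultures alongside, and OD600 was measured at 0 h and after 18 h at 30 °C. Compounds falling below 70% in both replicates were not taken to dose-response.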

| SMILES | growth inhibition at single dose [%] |
| --- | --- |
| COc1ccc(-c2nonc2NC(=O)c2cccc(C)c2)cc1OC | < 70 |
| CCOC(=O)c1c(NC(=O)Cn2ncc(Cl)c(Cl)c2=O)sc(C(=O)NC)c1C | < 70 |
| CO/N=C(\C(=O)OC)c1ccccc1CO/N=C(\C)c1cccc(C(F)(F)F)c1 | < 70 |
| Cc1nn(-c2ccccc2)c(C)c1-c1nc(-c2ccccc2)no1 | < 70 |
| O=C(Nc1ncccc1O)c1ccc(S(=O)(=O)NCc2ccco2)cc1 | < 70 |
| COc1cccc(NC(=O)[C@H](C(C)C)n2c(=O)[nH]c3ccccc3c2=O)c1 | < 70 |
| CCOC(=O)c1c[nH]c2cc(Cl)cc(Cl)c2c1=O | < 70 |
| OCCNCc1cc(Br)ccc1OCc1ccc(F)cc1 | < 70 |
| COc1ccc(Nc2ccccc2NC(=O)c2ccc(O)nc2)cc1 | < 70 |
| CC(C)NS(=O)(=O)c1cccc(CNc2ncnc3ccccc23)c1 | < 70 |
| Nc1ncnc2[nH]nc(Cc3cccc4ccccc34)c12 | < 70 |
| Clc1ccc2nc(CSc3nnc4c(n3)[nH]c3ccccc34)cn2c1 | < 70 |
| Cc1noc(C)c1S(=O)(=O)N(Cc1ccc(C(=O)NC2CC2)cc1)C1CC1 | < 70 |
| COc1cccc(Cn2c(Oc3ccccc3)nc3c2c(=O)n(C)c(=O)n3C)c1 | < 70 |
| CCOc1ccc(C2N(C)c3ccccc3N2C)cc1 | < 70 |
| COc1ccc(C(=O)Nc2nonc2-c2ccc(OC)c(OC)c2)cc1Cl | < 70 |
| CCN(CC)S(=O)(=O)c1ccc(-c2csc(Nc3ccc(C)c(C)c3)n2)cc1 | < 70 |
| O=C1[C@@H](Oc2ccccc2)[C@@H](c2ccc(Cl)cc2)N1CCn1cnc2c(NCc3ccccc3)ncnc21 | < 70 |
| O=C1CC(O)(C(F)(F)C(F)(F)F)Oc2ccccc21 (stereo not drawn) | < 70 |
| O=C(NCc1ccco1)C1CCN(S(=O)(=O)c2ccc(Br)cc2)CC1 | < 70 |
| CC(C)Cn1c2c(c(O)c(C(=O)Nc3ncccc3O)c1=O)CCCC2 | < 70 |
| O=C(Nc1ccc(-c2nc3cc(NC(=O)c4ccc(Cl)cc4)ccc3[nH]2)cc1)c1ccc(Cl)cc1 | < 70 |
| COc1ccc(N(CCCN2C(=O)c3cccc4cccc(c34)C2=O)C(=O)c2ccccc2Cl)cc1 | < 70 |

| SMILES | growth inhibition at single dose [%] |
| --- | --- |
| CC(C)(C)c1nc(-c2ccc(N)cc2)no1 | < 70 |
| c1ccc(C2=Nc3ccccc3N=C(c3ccccc3)c3ccccc32)cc1 | < 70 |
| COc1cc2c(cc1OC)C1=NNC(=O)C1=NC(C)(C)C2 | < 70 |
| CCCn1c(=N)c(C(=O)NC2CCCCC2)cc2c(=O)n3cccc(C)c3nc21 | < 70 |
| COc1ccc(/C(C#N)=C/c2ccccc2OC)cc1 | < 70 |
| CCCCn1c(N)c(N(C)CC(=O)Nc2scc(-c3ccccc3)c2C(=O)OCC)c(=O)[nH]c1=O | < 70 |
| CC(C)c1ccc(CNCC(O)c2ccccc2)cc1 (stereo not drawn) | < 70 |
| CC1(C)Cc2c(c(N3CCOCC3)nc3snc(Br)c23)CO1 | < 70 |
| O=C(Nc1ccc(Oc2cc(C(F)(F)F)cc(C(F)(F)F)c2)cc1)Nc1ccc(OC(F)(F)F)cc1 | < 70 |
| Cc1ccc(-c2nc3ccccc3o2)cc1NCc1cc(Cc2ccccc2)ccc1O | < 70 |
| Oc1ccccc1CN1CCN(C(c2ccccc2)c2ccccc2)CC1 | < 70 |
| O=C(Nc1ccc(N2CCOCC2)cn1)c1ccccc1 | < 70 |
| COc1ccccc1N1CCN(c2nc(=O)c3c([nH]2)CCC3)CC1 | < 70 |
| COc1ccc(OC)c(C2C3=C(CC(C)(C)CC3=O)N(c3ccc(Cl)c(Cl)c3)C3=C2C(=O)CC(C)(C)C3)c1 | < 70 |
| C[C@H](C(N)=O)N1CCCC[C@@H]1c1ccc(OCc2cccc(F)c2)cc1 | < 70 |
| Cc1nn(C)c(C)c1CC(=O)Nc1ccc(-n2cnc3ccccc32)cc1 | < 70 |
| COc1ccc(-c2nc(C(=O)N3CCc4ccccc43)cs2)cc1OC | < 70 |
| COc1ccc(OC)c(C(C)Nc2ncnc3sccc23)c1 (stereo not drawn) | < 70 |
| COc1ccccc1OCCCCn1c(C2CC2)nc2ccccc21 | < 70 |
| Cc1cccc(NC(=O)CN2C(=O)/C(=C(/C#N)c3nc4ccccc4[nH]3)c3ccccc32)c1 | < 70 |
| C=CC12CCN(CC1)C(C(O)c1ccnc3ccc(OC)cc13)C2 (stereo not drawn) | < 70 |
| CC(C)(C)c1ccc(NC(=O)c2cnccn2)cc1 | < 70 |
| c1ccc(Oc2ccc(-c3cncc(-c4ccc5[nH]ccc5c4)n3)cc2)cc1 | < 70 |

| SMILES | growth inhibition at single dose [%] |
| --- | --- |
| CCOC(=O)c1sc2ncn(-n3c(C)ccc3C)c(=O)c2c1C | < 70 |
| CCOc1cccc(C2Nc3ccccc3C(=O)N2C2CC2)c1O (stereo not drawn) | < 70 |
| CCOC(=O)c1cn(CC)c2cc(N(C)CCc3ccc(OC)c(OC)c3)c(F)cc2c1=O | < 70 |
| COCC(C)Nc1ncnc2scc(-c3ccc(OC)cc3)c12 (stereo not drawn) | < 70 |
| O=C(Nc1nc(CN2CCOCC2)cs1)c1ccc(-c2ccccc2)cc1 | < 70 |
| COc1ccc(NC(=O)C2c3ccccc3C(=O)N(CC(C)C)C2c2cccs2)cc1 (stereo not drawn) | < 70 |
| O=C1N=C(Nc2cccnc2)S/C1=C/c1ccc2ncccc2c1 | < 70 |
| COc1cc(NC(=O)COc2ccc3[nH]c4ccccc4c(=O)c3c2)c(OC)cc1Cl | < 70 |
| Nc1nccnc1C(=O)Nc1nc2cc3c(cc2s1)OCCO3 | < 70 |
| CC(=O)Nc1cccc(Oc2ccc(C(=O)Nc3ccc4ccccc4c3)cc2[N+](=O)[O-])c1 | < 70 |
| O=C(NCCc1c[nH]c2ccccc12)c1cc2ccccc2oc1=O | < 70 |
| COc1ccc2nc(N)nc(C)c2c1 | < 70 |
| Cc1cc(Cl)c(S(=O)(=O)N2CCCC2)cc1OCC(=O)NC1CCCCC1 | < 70 |
| CC(C)(C)C1CCC(CC2=C(O)C(=O)c3ccccc3C2=O)CC1 (stereo not drawn) | < 70 |
| O=C(CCC1CCCCC1)Nc1cccc(-c2nnc(-c3ccco3)o2)c1 | < 70 |
| CCOc1c(Cl)cc(CNCC(O)c2ccccc2)cc1OC (stereo not drawn) | < 70 |
| CC(C)n1ncc2c(C(=O)NCC(c3cccs3)N3CCOCC3)cc(-c3ccccc3)nc21 (stereo not drawn) | < 70 |
| COc1ccc2c(c1OC)C(=O)N1c3ccccc3N=C(c3ccc(C)cc3)CC21 (stereo not drawn) | < 70 |
| CN1CCCN(C(=O)CCNC(=O)/C=C/c2ccco2)c2nc3ccccc3nc21 | < 70 |
| N#Cc1nc(-c2ccccc2)oc1S(=O)(=O)c1ccc(Cl)cc1 | < 70 |
| CCOc1ccc(CN(C)CC(=O)NCCc2ccc(S(N)(=O)=O)cc2)cc1 | < 70 |
| Cc1noc(C)c1C(=O)OCC(=O)c1cc(C)n(-c2ccccc2F)c1C | < 70 |
